Legend:
TDP-43 aggregates = TDP-43 aggregates (Homo sapiens, UniProt Q13148); experiment: Classical autoradiography in brain sections from patients with FTD; format: binding; details: for Displacement on FTLD-TDP type A and B compared to non-demented control / Specific binding in FTLD-TDP type A compared to control: classical autoradiography; for cARG displacement on FTLD-TDP Type A case / cARG displacement on FTLD-TDP Type B case / cARG displacement on non-demented control: total binding divided by non-specific binding, grey matter, self-block with cold compound; for Specific binding in FTLD-TDP type A compared to control: one-way ANOVA with Tukey's correction
Experimental: All tissues were collected from donors for or from whom a written informed consent for a brain autopsy and the use of the material and clinical information for research purposes had been obtained by the respective brain banks. All samples were anonymized and coded. Frozen brain tissue blocks with confirmed TDP-43 pathology upon autopsy were processed using a cryotome to generate sections of 10 μm in thickness and mounted on glass slides. Sections were kept at −80° C. until use.
Brain sections were fixed for 15 minutes at 4° C. with 4% formaldehyde on ice and washed three times for eight minutes with 1×PBS at RT. Sections were blocked in assay buffer for 30 minutes (50 mM Tris-HCl, 0.9% NaCl+0.1% BSA). Cold test compound (Compound 1, Compound 8 or Compound 17) was diluted in assay buffer to 4 μM and applied on half of the sections for 40 minutes at RT to determine non-specific binding. The remaining half of the sections were only incubated with assay buffer (total binding). Following this incubation, an equal volume of the corresponding tritiated compound (i.e. [^3H]-Compound 1, [^3H]-Compound 8 or [^3H]-Compound 17, respectively), diluted to 20 nM (for [^3H]-Compound 1 and [^3H]-Compound 8) or 10 nM ([^3H]-Compound 17) or increasing concentration from 0.1 to 200 nM (for [^3H]-Compound 1 and [^3H]-Compound 17), was added on sections and incubated for 2 hours at RT and then washed as follows: once in ice-cold 50 mM Tris-HCl pH 7.4 buffer for one minute, twice in ice-cold PBS for one minute, once in ice-cold 50 mM Tris-HCl pH 7.4 buffer for one minute and finally rinsed briefly in ice-cold distilled water.
Sections were subsequently dried under a stream of air and mounted with a copper-based adhesive strip. Bound radioactivity was quantified by exposing the slides in a real-time autoradiography system (Beaquant™ AI4R) for 2 hours, with measurement settings configured for tritium. Beavacq software (AI4R) was used to acquire the image which was subsequently quantified using Beamage image analysis software (AI4R). Specific binding (non-specific binding subtracted from total) and displacement (total binding divided by non-specific) were calculated. Bar graphs were generated using GraphPad Prism. For Kd determination on brain sections, the specific binding data were fitted with a non-linear regression analysis using a one-site specific binding model in GraphPad Prism.

[1] = system: AD brain homogenates (containing Abeta and Tau); experiment: Radiobinding assay (direct binding, Kd) on AD insoluble fraction of brain homogenates; design: species or system human; details: saturation binding of tritiated compound
Experimental: Approximately 4 g of frozen tissue block from frontal cortex brain region was used from an AD donor with confirmed burden of Tau and Abeta aggregates. The tissue was homogenized in three volumes (1:3 w/v) of high salt buffer (50 mM Tris-HCl pH 7.5, 750 mM NaCl, 5 mM EDTA) supplemented with protease inhibitors (Complete; Roche 11697498001) at 4° C. with a glass Dounce homogenizer. The homogenate was transferred into polycarbonate centrifuge bottles (16×76 mm; Beckman 355603) and centrifuged at 100,000×g (38,000 RPM) in an ultracentrifuge (Beckman, XL100K) for 60 minutes at 4° C. using a pre-cooled 70.1 rotor (Beckman, 342184). Pellets were resuspended in high salt buffer supplemented with 1% Triton X-100 and homogenized at 4° C. with a syringe. The homogenates were centrifuged again at 100,000×g (38,000 RPM, 70.1 rotor) for 60 minutes at 4° C. Pellets were resuspended in high salt buffer supplemented with 1% Triton X-100 and 1 M sucrose and homogenized at 4° C. with a syringe. […]
The AD insoluble fraction was incubated with [^3H]Compound 1, [^3H]Compound 17 or [^3H]Abeta reference compound ([^3H]Abeta ref) at different concentrations. […] The filters were analyzed on a Microbeta scintillation counter (PerkinElmer). Specific binding was calculated by subtracting the non-specific signal from the total signal. […]

Chain of TDP-43 aggregates (Q13148 whole entry): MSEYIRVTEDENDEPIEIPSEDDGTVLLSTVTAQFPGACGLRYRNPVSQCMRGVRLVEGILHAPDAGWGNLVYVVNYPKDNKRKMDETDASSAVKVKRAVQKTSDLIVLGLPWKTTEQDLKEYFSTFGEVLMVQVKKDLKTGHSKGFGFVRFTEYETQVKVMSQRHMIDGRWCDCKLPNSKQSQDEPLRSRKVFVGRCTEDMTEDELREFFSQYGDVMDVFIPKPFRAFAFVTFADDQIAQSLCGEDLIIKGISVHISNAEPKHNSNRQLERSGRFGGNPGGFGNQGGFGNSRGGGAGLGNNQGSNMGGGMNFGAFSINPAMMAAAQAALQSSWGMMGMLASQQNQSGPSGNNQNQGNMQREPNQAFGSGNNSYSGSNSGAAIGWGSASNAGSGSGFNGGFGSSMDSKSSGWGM

| SMILES | Displacement on FTLD-TDP type A and B compared to non-demented control (TDP-43 aggregates) | cARG displacement on FTLD-TDP Type A case (TDP-43 aggregates) | cARG displacement on FTLD-TDP Type B case (TDP-43 aggregates) | cARG displacement on non-demented control (TDP-43 aggregates) | Specific binding in FTLD-TDP type A compared to control (TDP-43 aggregates) | Direct binding in AD brain homogenates (containing Abeta and Tau) [1] |
| --- | --- | --- | --- | --- | --- | --- |
| O=C1c2sc(-c3ccc(N4CCC(CO)CC4)nc3F)nc2CCN1c1cccnc1 [Compound 17, 2-(2-fluoro-6-(4-(hydroxymethyl)piperidin-1-yl)pyridin-3-yl)-5-(pyridin-3-yl)-6,7-dihydrothiazolo[5,4-c]pyridin-4(5H)-one] | increased displacement | 2.9 | 2.6 | 1.7 |  |  |
| [3H]C([3H])(O)C1CCN(c2ccc(-c3nc4c(s3)C(=O)N(c3cccnc3)CC4)c(F)n2)CC1 [[^3H]-Compound 17, 2-(2-fluoro-6-(4-(hydroxymethyl-t2)piperidin-1-yl)pyridin-3-yl)-5-(pyridin-3-yl)-6,7-dihydrothiazolo[5,4-c]pyridin-4(5H)-one] |  |  |  |  | significantly higher specific binding | No significant binding |
| [3H]c1cncc(N2CCc3nc(-c4cc([3H])c(N5CC[C@@H](F)C5)nc4F)sc3C2=O)c1 [[^3H]-Compound 1, tritiated 2-[2-fluoro-6-[(3R)-3-fluoropyrrolidin-1-yl]-3-pyridyl]-5-(3-pyridyl)-6,7-dihydrothiazolo[5,4-c]pyridin-4-one] |  |  |  |  | significantly higher specific binding | No significant binding |
| O=C1c2sc(-c3ccc(N4CC[C@@H](F)C4)nc3F)nc2CCN1c1cccnc1 [Compound 1, 2-[2-fluoro-6-[(3R)-3-fluoropyrrolidin-1-yl]-3-pyridyl]-5-(3-pyridyl)-6,7-dihydrothiazolo[5,4-c]pyridin-4-one] | increased displacement | 3.3 | 3.2 | 1.9 |  |  |

Source: patent publication US20260103474A1, “NOVEL COMPOUNDS FOR THE DIAGNOSIS OF TDP-43 PROTEINOPATHIES” (AC IMMUNE SA, priority 2022, published 2026)
